Assay results from paper PMC12136037, “Type II kinase inhibitors that target Parkinson’s disease–associated LRRK2” (Science Advances, 2025).

Experiments:
Assay in all cases: DSF 100 kinase selectivity screen;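 note: compound tested at 20 µM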
Type in all cases: binding
[1] = target: T1, ~100 representative kinases (Homo sapiens, UniProt P29317); conditions: Protein EPHA2; average of three replicates
T1 construct: Recombinant protein kinase domains with a concentration of 2 μM
In short: (§1)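 Each kinase domain, at 2 μM, is mixed with 20 μM test compound and SYPRO Orange in Hepes (20 mM, pH 7.5) with 500 mM NaCl. Temperature is then raised at 3°C/min and fluorescence-monitored unfolding yields the melting temperature change, ΔTm in degrees Celsius.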

[2] = target: T2, ~100 representative kinases (Homo sapiens, UniProt O14965); conditions: Protein STK6; DSF; average of three replicates
T2 construct: Recombinant protein kinase domains with a concentration of 2 μM
T2 sequence (O14965 1-403): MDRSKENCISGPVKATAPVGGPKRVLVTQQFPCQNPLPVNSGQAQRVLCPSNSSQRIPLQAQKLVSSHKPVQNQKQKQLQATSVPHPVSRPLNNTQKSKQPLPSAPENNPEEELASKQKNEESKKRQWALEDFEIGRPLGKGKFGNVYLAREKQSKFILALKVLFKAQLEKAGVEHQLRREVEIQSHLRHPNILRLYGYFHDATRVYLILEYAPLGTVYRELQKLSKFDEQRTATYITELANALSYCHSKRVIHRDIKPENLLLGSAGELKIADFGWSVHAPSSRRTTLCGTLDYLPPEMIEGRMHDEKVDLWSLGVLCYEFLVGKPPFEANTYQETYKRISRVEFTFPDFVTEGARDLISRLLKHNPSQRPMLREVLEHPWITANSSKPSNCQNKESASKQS
In short: as §1

[3] = target: T3, ~100 representative kinases (Homo sapiens, UniProt Q00536); conditions: protein PCTK1; average of three replicates
T3 construct: Recombinant protein kinase domains with a concentration of 2 μM
T3 sequence (Q00536 whole entry, the tested form may be a part): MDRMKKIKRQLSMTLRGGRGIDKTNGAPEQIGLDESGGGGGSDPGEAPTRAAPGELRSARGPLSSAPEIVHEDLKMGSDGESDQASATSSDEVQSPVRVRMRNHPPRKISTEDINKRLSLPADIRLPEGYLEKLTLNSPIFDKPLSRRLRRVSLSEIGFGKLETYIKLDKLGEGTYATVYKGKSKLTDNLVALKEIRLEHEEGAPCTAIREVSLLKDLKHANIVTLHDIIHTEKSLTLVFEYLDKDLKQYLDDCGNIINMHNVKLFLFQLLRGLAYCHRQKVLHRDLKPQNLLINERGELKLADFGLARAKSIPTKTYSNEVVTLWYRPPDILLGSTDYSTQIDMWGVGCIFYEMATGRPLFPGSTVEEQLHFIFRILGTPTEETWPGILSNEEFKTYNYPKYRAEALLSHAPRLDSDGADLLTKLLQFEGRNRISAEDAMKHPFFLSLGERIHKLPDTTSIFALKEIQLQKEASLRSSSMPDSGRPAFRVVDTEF
In short: as §1

[4] = target: T4, ~100 representative kinases (Homo sapiens, UniProt P54756); conditions: Protein EPHA5; average of three replicates
T4 construct: Recombinant protein kinase domains with a concentration of 2 μM
T4 sequence (P54756 25-1037): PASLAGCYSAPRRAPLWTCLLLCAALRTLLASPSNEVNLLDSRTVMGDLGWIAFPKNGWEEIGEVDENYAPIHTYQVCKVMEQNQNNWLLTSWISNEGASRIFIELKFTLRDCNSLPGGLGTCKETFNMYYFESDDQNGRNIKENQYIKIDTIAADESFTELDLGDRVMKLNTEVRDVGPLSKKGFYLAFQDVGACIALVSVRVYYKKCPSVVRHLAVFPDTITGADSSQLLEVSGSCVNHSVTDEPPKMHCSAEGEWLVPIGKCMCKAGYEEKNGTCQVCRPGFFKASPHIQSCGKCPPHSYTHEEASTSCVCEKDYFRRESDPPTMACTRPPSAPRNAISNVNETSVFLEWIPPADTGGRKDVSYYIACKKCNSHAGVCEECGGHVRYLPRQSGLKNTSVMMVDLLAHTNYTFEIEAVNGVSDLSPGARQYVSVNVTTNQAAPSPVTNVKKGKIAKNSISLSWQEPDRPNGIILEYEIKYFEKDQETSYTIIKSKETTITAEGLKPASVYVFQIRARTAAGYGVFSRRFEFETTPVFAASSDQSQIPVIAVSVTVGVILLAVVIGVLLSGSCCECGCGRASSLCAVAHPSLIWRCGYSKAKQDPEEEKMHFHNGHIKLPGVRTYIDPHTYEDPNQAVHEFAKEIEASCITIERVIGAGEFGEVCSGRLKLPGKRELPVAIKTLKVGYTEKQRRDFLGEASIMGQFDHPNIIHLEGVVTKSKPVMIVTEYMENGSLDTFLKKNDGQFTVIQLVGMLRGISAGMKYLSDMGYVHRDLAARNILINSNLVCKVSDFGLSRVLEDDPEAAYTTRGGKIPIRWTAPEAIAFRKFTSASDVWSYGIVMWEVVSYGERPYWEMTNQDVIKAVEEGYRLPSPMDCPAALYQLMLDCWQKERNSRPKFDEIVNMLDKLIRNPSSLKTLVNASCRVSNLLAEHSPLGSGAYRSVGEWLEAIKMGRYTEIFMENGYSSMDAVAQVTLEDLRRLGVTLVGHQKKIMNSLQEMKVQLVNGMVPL
In short: as §1

[5] = target: T5, ~100 representative kinases (Homo sapiens, UniProt P16083); conditions: protein NQO2; average of three replicates
T5 construct: Recombinant protein kinase domains with a concentration of 2 μM
T5 sequence (P16083 1-231): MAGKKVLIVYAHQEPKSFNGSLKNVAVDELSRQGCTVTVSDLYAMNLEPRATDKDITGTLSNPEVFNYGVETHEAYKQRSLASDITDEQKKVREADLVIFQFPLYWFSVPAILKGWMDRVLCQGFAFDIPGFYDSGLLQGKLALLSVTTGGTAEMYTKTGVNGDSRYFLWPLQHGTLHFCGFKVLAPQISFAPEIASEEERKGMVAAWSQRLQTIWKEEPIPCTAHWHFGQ
In short: as §1

[6] = target: T6, ~100 representative kinases (Homo sapiens, UniProt O14733); conditions: protein MAP2K7; average of three replicates
T6 construct: Recombinant protein kinase domains with a concentration of 2 μM
T6 sequence (O14733 1-419): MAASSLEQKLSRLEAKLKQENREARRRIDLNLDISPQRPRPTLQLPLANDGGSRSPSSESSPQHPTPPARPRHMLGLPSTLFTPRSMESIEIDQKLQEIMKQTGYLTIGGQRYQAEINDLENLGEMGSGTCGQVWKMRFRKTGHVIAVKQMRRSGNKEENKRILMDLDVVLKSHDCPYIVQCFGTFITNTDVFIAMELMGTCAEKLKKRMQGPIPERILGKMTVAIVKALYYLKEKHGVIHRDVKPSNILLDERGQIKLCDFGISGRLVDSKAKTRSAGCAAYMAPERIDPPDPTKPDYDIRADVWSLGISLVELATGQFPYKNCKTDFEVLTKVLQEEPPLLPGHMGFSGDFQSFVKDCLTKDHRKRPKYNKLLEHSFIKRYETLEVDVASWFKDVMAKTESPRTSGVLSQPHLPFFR
In short: as §1

[7] = target: T7, ~100 representative kinases (Homo sapiens, UniProt P54762); conditions: Protein EPHB1; average of three replicates
T7 construct: Recombinant protein kinase domains with a concentration of 2 μM
T7 sequence (P54762 18-984): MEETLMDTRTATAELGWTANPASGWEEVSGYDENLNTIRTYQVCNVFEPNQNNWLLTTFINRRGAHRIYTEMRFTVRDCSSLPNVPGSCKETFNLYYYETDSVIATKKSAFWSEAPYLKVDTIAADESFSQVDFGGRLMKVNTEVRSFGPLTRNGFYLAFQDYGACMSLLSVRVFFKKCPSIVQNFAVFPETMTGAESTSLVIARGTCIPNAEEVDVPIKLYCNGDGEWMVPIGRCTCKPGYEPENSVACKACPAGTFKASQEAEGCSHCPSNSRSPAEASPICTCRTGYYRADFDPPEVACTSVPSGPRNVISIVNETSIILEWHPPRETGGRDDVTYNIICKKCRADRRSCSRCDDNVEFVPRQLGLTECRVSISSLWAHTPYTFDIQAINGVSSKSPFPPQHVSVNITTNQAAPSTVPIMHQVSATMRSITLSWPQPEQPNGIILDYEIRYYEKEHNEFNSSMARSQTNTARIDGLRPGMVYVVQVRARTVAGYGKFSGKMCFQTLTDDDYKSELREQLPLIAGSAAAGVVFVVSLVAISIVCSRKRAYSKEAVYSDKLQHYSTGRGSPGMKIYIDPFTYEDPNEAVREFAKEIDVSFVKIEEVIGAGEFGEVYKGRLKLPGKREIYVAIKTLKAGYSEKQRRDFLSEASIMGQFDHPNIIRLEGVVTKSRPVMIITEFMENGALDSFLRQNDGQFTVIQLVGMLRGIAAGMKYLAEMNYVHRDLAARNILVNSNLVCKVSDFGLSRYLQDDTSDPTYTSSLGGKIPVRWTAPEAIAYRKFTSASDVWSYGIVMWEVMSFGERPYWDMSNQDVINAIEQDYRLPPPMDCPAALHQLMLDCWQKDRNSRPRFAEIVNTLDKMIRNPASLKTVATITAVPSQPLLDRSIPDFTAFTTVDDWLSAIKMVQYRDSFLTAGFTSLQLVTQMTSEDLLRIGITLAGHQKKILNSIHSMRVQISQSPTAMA
In short: as §1

[8] = target: T8, ~100 representative kinases (Homo sapiens, UniProt Q8IU85); conditions: Protein CAMK1D; average of three replicates
T8 construct: Recombinant protein kinase domains with a concentration of 2 μM
T8 sequence (Q8IU85 whole entry, the tested form may be a part): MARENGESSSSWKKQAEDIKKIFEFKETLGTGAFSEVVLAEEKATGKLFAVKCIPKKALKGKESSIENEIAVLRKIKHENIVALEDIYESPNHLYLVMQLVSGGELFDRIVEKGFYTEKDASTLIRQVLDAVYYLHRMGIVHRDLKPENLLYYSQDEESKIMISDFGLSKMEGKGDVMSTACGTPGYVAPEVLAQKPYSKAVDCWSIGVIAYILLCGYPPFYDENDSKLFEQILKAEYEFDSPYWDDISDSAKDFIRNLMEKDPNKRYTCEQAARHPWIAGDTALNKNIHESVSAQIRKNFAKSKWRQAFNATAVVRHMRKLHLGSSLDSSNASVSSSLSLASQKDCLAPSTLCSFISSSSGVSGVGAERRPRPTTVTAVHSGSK
In short: as §1

[9] = target: T9, ~100 representative kinases (Homo sapiens, UniProt Q13554); conditions: Protein CAMK2B; average of three replicates
T9 construct: Recombinant protein kinase domains with a concentration of 2 μM
T9 sequence (Q13554 whole entry, the tested form may be a part): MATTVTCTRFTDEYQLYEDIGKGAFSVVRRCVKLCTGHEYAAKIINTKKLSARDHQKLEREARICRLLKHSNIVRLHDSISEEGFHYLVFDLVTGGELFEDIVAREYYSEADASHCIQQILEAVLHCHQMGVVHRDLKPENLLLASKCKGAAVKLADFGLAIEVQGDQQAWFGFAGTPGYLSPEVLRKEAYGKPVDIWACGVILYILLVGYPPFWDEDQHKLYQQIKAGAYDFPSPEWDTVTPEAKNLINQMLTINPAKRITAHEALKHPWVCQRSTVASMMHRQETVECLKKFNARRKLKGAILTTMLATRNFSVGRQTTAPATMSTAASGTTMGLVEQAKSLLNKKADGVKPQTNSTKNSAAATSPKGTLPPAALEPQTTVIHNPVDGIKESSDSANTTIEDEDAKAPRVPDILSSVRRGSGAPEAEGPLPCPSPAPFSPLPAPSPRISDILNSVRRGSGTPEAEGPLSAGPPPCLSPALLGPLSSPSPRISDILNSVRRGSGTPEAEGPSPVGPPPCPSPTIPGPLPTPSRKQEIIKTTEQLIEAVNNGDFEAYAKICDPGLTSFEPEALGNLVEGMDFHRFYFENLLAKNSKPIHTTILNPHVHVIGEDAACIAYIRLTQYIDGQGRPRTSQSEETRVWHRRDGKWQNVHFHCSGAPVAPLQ
In short: as §1

T1 sequence (P29317 24-976): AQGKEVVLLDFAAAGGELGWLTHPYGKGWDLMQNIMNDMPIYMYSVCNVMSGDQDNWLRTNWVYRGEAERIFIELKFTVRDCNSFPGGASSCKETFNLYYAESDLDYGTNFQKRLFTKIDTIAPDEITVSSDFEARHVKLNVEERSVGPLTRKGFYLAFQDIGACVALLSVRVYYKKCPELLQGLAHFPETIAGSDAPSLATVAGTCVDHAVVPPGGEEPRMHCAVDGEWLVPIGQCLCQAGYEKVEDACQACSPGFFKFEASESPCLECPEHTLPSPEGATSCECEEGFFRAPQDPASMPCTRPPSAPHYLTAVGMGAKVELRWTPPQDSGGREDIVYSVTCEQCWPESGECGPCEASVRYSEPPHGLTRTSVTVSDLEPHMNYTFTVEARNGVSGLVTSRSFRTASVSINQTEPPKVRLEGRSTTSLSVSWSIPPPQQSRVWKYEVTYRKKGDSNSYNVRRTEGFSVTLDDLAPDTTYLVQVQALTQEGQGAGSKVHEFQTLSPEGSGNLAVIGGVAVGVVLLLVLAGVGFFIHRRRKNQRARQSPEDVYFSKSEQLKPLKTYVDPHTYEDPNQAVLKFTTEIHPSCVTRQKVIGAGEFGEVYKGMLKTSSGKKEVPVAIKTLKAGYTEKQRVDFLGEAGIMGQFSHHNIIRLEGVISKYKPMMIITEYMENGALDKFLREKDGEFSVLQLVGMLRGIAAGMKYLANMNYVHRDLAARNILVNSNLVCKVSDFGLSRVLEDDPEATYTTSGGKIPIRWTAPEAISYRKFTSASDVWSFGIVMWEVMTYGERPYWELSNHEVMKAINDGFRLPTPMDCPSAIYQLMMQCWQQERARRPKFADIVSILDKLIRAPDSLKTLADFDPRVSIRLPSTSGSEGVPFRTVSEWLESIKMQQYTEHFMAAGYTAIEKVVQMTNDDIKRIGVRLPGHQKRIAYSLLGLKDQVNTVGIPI

| Structure (SMILES) | dTm [1] [K] | dTm [2] [K] | dTm [3] [K] | dTm [4] [K] | dTm [5] [K] | dTm [6] [K] | dTm [7] [K] | dTm [8] [K] | dTm [9] [K] |
| --- | --- | --- | --- | --- | --- | --- | --- | --- | --- |
| CCSc1nc(NC)c2c(-c3cccc(NC(=O)Nc4cc(C(C)(C)C)nn4-c4ccc(C)cc4)c3)c[nH]c2n1 [Compound 32] | 0.36 | 0.53 | 3.77 | 0.04 | -0.0148 | 0.27 | 0.21 | 0.45 | 0.33 |
| COc1cc(C(=O)N2CCOCC2)c(F)cc1Nc1nc(N(C)C)c2c(Cl)c[nH]c2n1 [Compound 36] | -0.10 | 3.22 | 0.43 | -0.96 | -0.44 | 2.56 | -0.27 | 1.95 | 2.02 |
| COc1cc(S(C)(=O)=O)ccc1Nc1nc(N(C)C)c2c(Cl)c[nH]c2n1 [Compound 37] | -0.56 | -0.19 | -0.043 | -0.48 | -0.63 | -0.81 | -0.51 | 0.49 | -0.66 |
| CNC(=O)c1cc(Oc2ccc(NC(=O)Nc3cc(C(C)(C)C)nn3-c3ccc4ncccc4c3)c(F)c2)ccn1 [Rebastinib, reference compound] | 10.76 | 1.83 | 13.62 | 10.65 | -1.54 | 2.63 | 4.28 | 1.21 | 0.87 |
